Test results from US8153784B2, “Imaging of enzyme activity” (The General Hospital Corporation, priority 2004, dated 2012).

Key:
[1] = target: T1, human MPO embedded in Matrigel (Homo sapiens, UniProt P05164); assay: MPO/Matrigel implant mouse model, T1-weighted MR imaging; assay type: in vivo; conditions: mice, right MPO/Matrigel vs left control, 1.5 T
T1 construct: purchased BioDesign, Inc
T1 sequence (P05164 49-745): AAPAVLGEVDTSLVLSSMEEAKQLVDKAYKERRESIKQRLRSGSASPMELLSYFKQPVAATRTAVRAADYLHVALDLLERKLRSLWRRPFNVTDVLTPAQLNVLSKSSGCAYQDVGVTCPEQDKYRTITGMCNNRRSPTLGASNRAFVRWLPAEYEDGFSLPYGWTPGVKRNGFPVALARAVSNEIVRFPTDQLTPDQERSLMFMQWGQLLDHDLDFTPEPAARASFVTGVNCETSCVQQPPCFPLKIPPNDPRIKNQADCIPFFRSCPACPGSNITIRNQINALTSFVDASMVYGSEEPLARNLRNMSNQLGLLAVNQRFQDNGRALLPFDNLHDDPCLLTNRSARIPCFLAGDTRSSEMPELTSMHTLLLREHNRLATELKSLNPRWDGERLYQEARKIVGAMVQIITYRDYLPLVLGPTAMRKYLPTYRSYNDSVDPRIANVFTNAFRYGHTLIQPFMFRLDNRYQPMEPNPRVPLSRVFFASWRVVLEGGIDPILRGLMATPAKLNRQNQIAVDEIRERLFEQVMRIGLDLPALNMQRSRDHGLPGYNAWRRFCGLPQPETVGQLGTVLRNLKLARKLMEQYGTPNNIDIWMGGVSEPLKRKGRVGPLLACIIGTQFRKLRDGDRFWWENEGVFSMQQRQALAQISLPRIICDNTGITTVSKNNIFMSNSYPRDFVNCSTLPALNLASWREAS
Description: To evaluate the monomeric substrates in vivo, we devised a mouse model that harbored 400 μL of Matrigel basement membrane matrix gel mixed 1:1 by volume with a solution containing 15 U of human MPO and glucose oxidase (as a source of hydrogen peroxide) that was injected into the right flank of the mouse. The left flank was injected with the enzyme-free Matrigel mixture. We subsequently performed T1-weighted MR imaging after the intravenous injection of Gd-DTPA-diSer substrate at the dose of […].
(§1) The MR imaging experiments were performed on a 1.5 T GE Excite scanner and a 4.7 T Bruker Pharmascan scanner. For all MR imaging experiments, precontrast T2-(TR=2000, TE=100, ETL=8, NEX=4, fast spin echo sequence) and T1-weighted images (TR=500, TE=11, NEX=4, spin echo sequence) with fat saturation were initially performed to locate the gels or area of inflammation. The substrates (0.3 mmol/kg) were subsequently injected via the tail vein of the mouse. The mouse was immediately imaged after the injection of the contrast agent using multiple T1-weighted sequences with fat saturation for at least 3 hours.
Ten-week old C57BL6 male mice were obtained from Jackson Laboratories. A total of 22 mice were used for the study. • 1. MPO/Matrigel imaging experiments: Matrigel™ (Beckton-Dickinson), a […] basement membrane matrix gel was used to immobilize human MPO and glucose oxidase (to supply H2O2 required for detecting MPO oxidative activity, Calbiochem). This was chosen to reflect deposits of human MPO in inflamed tissue in a mouse model. 400 μL of a mixture of Matrigel™ and MEM (Cambrex) was injected slowly into the thighs of each mouse one hour prior to imaging. The right thigh mixture also contained 15 U of MPO and 4 U of glucose oxidase (Calbiochem), while the left thigh mixture contained no enzyme and thus serves as an internal control. A total of 15 mice were used (3 mice each for 5-HT-DOTA(Gd), bis-5-HT-DTPA(Gd), bis-5-HT-DTPA-^111In, bis-tyramide-DTPA(Gd), and DTPA(Gd)). • 2. LPS/Matrigel experiments (n=3): This model was developed to induce endogeneous mouse MPO secretion and activation. 200 μL total volume Matrigel containing 10% heparin was injected slowly into the thighs of the mice 4 days prior to imaging. The right-sided mixture also contained E. coli lipopolysaccharide (LPS) at 10 μg/mL. One mouse was sacrificed for immunohistochemistry. • 3. Myositis experiments (n=4): LPS at 100 μg/mL in PBS was injected into each mouse intramuscularly in the right flank to produce myositis. The mice are imaged 24 hours after injection.
For normalized signal intensity measured on T1-weighted images, mean±standard deviation (SD) values were calculated in regions of interest (ROI). Contrast-to-noise (CNR) ratios were computed for each ROI according to the formula

[2] = target: T2, endogenous mouse MPO (Mus musculus, UniProt P11247); assay: LPS/Matrigel experiments, MR imaging; assay type: in vivo; conditions: mice; LPS/Matrigel
T2 construct: endogenous in cells; host or cells: inflammatory cells recruited by LPS in C57BL6 male mice (Matrigel site in the thigh, or flank muscle myositis)
T2 sequence (P11247 139-718): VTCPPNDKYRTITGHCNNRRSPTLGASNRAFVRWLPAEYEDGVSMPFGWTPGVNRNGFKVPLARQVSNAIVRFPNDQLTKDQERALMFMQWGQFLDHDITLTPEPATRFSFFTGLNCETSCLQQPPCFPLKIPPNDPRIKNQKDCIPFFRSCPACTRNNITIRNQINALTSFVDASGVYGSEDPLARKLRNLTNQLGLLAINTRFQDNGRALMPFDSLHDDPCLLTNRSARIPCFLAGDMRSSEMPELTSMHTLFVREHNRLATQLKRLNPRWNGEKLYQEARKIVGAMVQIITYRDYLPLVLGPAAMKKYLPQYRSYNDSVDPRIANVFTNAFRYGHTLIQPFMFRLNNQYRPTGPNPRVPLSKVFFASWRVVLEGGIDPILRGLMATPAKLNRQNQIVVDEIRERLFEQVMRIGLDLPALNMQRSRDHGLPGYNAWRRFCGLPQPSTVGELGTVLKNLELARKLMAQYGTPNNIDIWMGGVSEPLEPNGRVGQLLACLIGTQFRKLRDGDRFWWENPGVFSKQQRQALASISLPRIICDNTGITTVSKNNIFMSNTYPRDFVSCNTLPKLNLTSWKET
Description: as §1
(§2) Ten-week old C57BL6 male mice were obtained from Jackson Laboratories. A total of 22 mice were used for the study. • 1. MPO/Matrigel imaging experiments: Matrigel™ (Beckton-Dickinson), a […] basement membrane matrix gel was used to immobilize human MPO and glucose oxidase (to supply H2O2 required for detecting MPO oxidative activity, Calbiochem). This was chosen to reflect deposits of human MPO in inflamed tissue in a mouse model. 400 μL of a mixture of Matrigel™ and MEM (Cambrex) was injected slowly into the thighs of each mouse one hour prior to imaging. The right thigh mixture also contained 15 U of MPO and 4 U of glucose oxidase (Calbiochem), while the left thigh mixture contained no enzyme and thus serves as an internal control. […]

[3] = target: T2, endogenous mouse MPO; assay: LPS induced myositis, MR imaging at 4.7 T; assay type: in vivo; conditions: mice with LPS induced myositis
Description: as §1, §2

[4] = target: T3, horseradish peroxidase (HRP) (Armoracia rusticana, UniProt P00433); assay: Ga-3 as oxidoreductase reducing substrate, UV-visible spectra with HRP/H2O2; assay type: biochemical; set-up: purchased Sigma; conditions: after approximately 2 hours
T3 sequence (P00433 31-338): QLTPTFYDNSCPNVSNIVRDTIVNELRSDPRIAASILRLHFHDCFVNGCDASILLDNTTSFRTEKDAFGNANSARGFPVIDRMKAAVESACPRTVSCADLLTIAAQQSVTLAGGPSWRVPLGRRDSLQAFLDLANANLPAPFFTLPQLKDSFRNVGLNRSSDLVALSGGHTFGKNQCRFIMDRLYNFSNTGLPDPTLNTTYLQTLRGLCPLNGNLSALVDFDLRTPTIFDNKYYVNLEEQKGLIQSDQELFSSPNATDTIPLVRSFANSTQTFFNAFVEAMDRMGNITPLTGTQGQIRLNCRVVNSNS
Description: (§3) Compound Ga-3 was further tested in vitro as an oxidoreductase reducing substrate. In a preliminary experiment, horseradish peroxidase (HRP), a model oxidoreductase, was used to test the possibility of enzyme-induced oligomerization. […] Well-defined aromatic band centered at 280 nm broadened over the reaction time and extended beyond 330 nm with some residual absorption in the region 350-500 nm. Extension towards the visible range is associated with the extension of the aromatic system as could be expected in the event of oligomerization. After 6 hours no change was observed and the reaction reaches levels close to 90% of conversion after approximately 2 hours. If MPO was used instead of HRP, the obtained results (see FIG. 20C) were similar.

[5] = target: T4, MPO (Homo sapiens, UniProt P05164); assay: Ga-3 as oxidoreductase reducing substrate, UV-visible spectra with MPO; assay type: biochemical
T4 sequence (P05164 49-745): T1 sequence (P05164 49-745)
Description: as §3

[6] = target: T4, MPO; assay: SPECT/CT imaging of MPO/Matrigel implants with 67Ga tracer; assay type: in vivo, mouse
Description: SPECT imaging and biodistribution: A solution of 80-100 μCi of [^67Ga]—I in 200 μl of saline were injected intravenously into mice prepared as follows: ten-week old C57BL6 male mice (Jackson Laboratories) were injected with 400 μL of a mixture of Matrigel™ (Beckton-Dickinson) and MEM (Cambrex) into the thighs of each mouse one hour prior to imaging. The right thigh mixture also contained 15 U of MPO and 4 μg of glucose oxidase (Calbiochem), while the left thigh mixture contained no enzyme to serve as an internal control. Glucose oxidase was included to ensure local generation of hydrogen peroxide. […] Six hours after injection, the animals were sacrificed and biodistribution was determined in major organs. The % dose accumulated per gram of major organs was determined by using a gamma counter.
To test our hypothesis in vivo, we prepared an inflammation model in mice. The model consisted in the subcutaneous implantation (1 hour before radiotracer injection) of Matrigel/MPO/GO mixture in the right thigh of each mouse. The left thigh mixture contained no enzyme and served as internal control. Matrigel is a basement membrane matrix gel that can be used for immobilizing human MPO and peroxide-generating enzyme. After injecting [^67Ga]—I intravenously, SPECT/CT imaging was performed 4 hours later.

[7] = Biodistribution of 67Ga tracer; assay type: in vivo, mouse; conditions: mice n=4; 6 hours after the injection
Description: SPECT imaging and biodistribution: A solution of 80-100 μCi of [^67Ga]—I in 200 μl of saline were injected intravenously into mice prepared as follows: ten-week old C57BL6 male mice (Jackson Laboratories) were injected with 400 μL of a mixture of Matrigel™ (Beckton-Dickinson) and MEM (Cambrex) into the thighs of each mouse one hour prior to imaging. The right thigh mixture also contained 15 U of MPO and 4 μg of glucose oxidase (Calbiochem), while the left thigh mixture contained no enzyme to serve as an internal control. Glucose oxidase was included to ensure local generation of hydrogen peroxide. The animals were imaged 3 hours after injection on a high resolution X-SPECT/CT system (Gamma Medica). Six hours after injection, the animals were sacrificed and biodistribution was determined in major organs. The % dose accumulated per gram of major organs was determined by using a gamma counter.

With `O=C([O-])CN(CCN(CC(=O)[O-])CC(=O)O)CCN(CC(=O)[O-])CC(=O)O.[Gd+3]` [DTPA(Gd), reference compound] the “enhancement of MPO implant compared with control implant” value [1] was “no visual difference or CNR difference”, the “enhancement of MPO implant compared with control implant” value ([1]; listed as Magnevist) was “did not show any difference” and the “difference in enhancement LPS side vs control” value [2] was “no significant difference in enhancement”. The “enhancement at 50 minutes after injection” value [3] was “significant wash-out of the enhancement”.

With `CC(=O)N1CCCCCNC(=O)CCC(=O)N2CCCCCNC(=O)CCC(=O)N(CCCCCNC(=O)Cc3c[nH]c4ccc(O)cc34)[O][Ga]([O]1)[O]2` [Ga-3] the conversion [4] was about 90% and the “result with MPO compared with HRP” value [5] was “similar”.

With `CC(=O)N1CCCCCNC(=O)CCC(=O)N2CCCCCNC(=O)CCC(=O)N(CCCCCNC(=O)Cc3c[nH]c4ccc(O)cc34)[O][67Ga]([O]1)[O]2` [[^67Ga]-3] the “difference between right (MPO) and left (control) thigh” value ([6]; mice, 6 hours after the injection) was “around 60%”, the “intensity of MPO implant vs control implant” value ([6]; mouse SPECT/CT fusion images) was “higher intensity” and the “residual radioactivity in liver” value [7] was about 1.4%. The “residual radioactivity in the bowel” value [7] was about 7.8% and the “residual radioactivity in the rest of the organs” value [7] was “below 0.5%”.
